Measurements from patent US11584714B2 (priority 2018, dated 2023).
Counter-ions that a name gives are not always drawn. Like-named read-outs stand apart in the source and are kept apart here. Square brackets hold non-standard residues; d marks the D form. Peptide text beside a SMILES is read from it. * marks the point of attachment. dChg = N[C@@H](C(=O)O)C1CCCCC1; Agmatine = N=C(N)NCCCCN*; Aze = O=C(O)[C@@H]1CCN1

Experiments:
Assay type in all cases: biochemical
[1] = target: MASP-2 (CCP1-CCP2-SP) (Homo sapiens (Human), UniProt O00187); assay: biochemical
Sequence of MASP-2 (CCP1-CCP2-SP) (O00187 445-686): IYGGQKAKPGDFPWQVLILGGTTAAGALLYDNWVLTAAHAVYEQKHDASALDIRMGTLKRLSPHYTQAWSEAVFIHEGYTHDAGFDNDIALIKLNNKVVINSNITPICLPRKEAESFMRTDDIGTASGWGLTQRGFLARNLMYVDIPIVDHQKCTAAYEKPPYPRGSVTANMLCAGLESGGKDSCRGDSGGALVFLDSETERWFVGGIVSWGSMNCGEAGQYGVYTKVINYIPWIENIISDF

[2] = target: mMASP-2 (Mus musculus (Mouse), UniProt Q91WP0); assay: Enzymatic inhibition of mMASP-2; conditions: read-out: mMASP-2 Ki
Sequence of mMASP-2 (Q91WP0 20-685): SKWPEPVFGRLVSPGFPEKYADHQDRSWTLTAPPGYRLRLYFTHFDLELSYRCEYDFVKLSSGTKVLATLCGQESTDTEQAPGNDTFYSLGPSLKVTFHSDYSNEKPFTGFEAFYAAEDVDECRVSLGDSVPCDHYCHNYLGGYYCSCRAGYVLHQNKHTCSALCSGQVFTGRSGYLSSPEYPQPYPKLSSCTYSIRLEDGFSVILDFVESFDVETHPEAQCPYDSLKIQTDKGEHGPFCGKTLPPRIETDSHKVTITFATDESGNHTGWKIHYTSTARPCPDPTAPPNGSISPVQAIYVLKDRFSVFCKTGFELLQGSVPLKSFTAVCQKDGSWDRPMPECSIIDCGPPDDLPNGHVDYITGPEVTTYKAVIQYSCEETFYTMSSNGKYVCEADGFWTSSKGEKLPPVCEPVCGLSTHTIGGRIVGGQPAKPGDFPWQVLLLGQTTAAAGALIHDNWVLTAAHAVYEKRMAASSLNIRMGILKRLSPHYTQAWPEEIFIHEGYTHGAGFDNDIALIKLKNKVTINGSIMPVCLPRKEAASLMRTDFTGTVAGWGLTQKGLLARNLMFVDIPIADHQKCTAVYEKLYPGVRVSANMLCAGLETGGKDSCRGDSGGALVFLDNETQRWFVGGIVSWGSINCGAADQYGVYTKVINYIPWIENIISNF

[3] = target: human α-thrombin (Homo sapiens (Human), UniProt P00734); assay: Enzymatic assay for thrombin (Boc-VPR-AMC substrate)
[4] = selectivity for MASP-2 inhibition versus thrombin

Row | Structure (SMILES) | Ki ([1]; read-out: MASP-2 Ki) [µM] | MASP-2 vs. thrombin selectivity [1, 4] | Ki [2] [µM] | Ki ([3]; Thrombin Ki (μM)) [µM] | Ki ([3]; read-out: Thrombin Ki) [µM] | Ki [1] [µM] | MASP-2 vs. thrombin selectivity ([1]; MASP-2 inhibition versus thrombin)
1 | N=C(N)c1ccc(CNC(=O)[C@H](Cc2ccc(O)cc2)NC(=O)[C@H](N)CCc2ccccc2)cc1 [compound 1326, (R)-2-Amino-N—((S)-1-((4-carbamimidoylbenzyl)amino)-3-(4-hydroxyphenyl)-1-oxopropan-2-yl)-4-phenylbutanamide Di-trifluoroacetate salt] | < 0.5 | *** (≥25 to <100-fold) | < 0.5 | 10 to 25 | – | – | –
2 | Cc1cc(C[C@@H]2CN[C@@H](C(=O)N[C@@H](C)C(=O)NCc3cnc4c(c3)c(Cl)cn4C)C2)ccn1 [compound 1468, Trifluoroacetate] | < 0.5 | **** (≥100-fold) | < 0.5 | – | > 25 | – | –
3 | Cc1nc(N)ccc1CNC(=O)[C@H](C)NC(=O)[C@H]1C[C@H](Cc2cc(Br)c(Cl)s2)CN1 [compound 1483, (2R,4R)—N—((S)-1-(((6-Amino-2-methylpyridin-3-yl)methyl)amino)-1-oxopropan-2-yl)-4-((4-bromo-5-chlorothiophen-2-yl)methyl)pyrrolidine-2-carboxamide Di-trifluoroacetate salt] | < 0.5 | **** (≥100-fold) | < 0.5 | 10 to 25 | – | – | –
4 | C[C@H](NC(=O)[C@H](N)CCc1ccccc1)C(=O)NCc1cc(Cl)ccc1-n1cncn1 [compound 1341, (R)-2-amino-N—((S)-1-((5-chloro-2-(1H-1,2,4-triazol-1-yl)benzyl)amino)-1-oxopropan-2-yl)-4-phenylbutanamide] | – | −− (<1.0-fold) | > 25 | 0.5 to 2.5 | – | 10 to 25 | –
5 | Cc1nc(N)ccc1CNC(=O)[C@H](C)NC(=O)[C@H]1C[C@H](Cc2csc(Cl)c2)CN1 [compound 1461, (2R,4S)—N—((S)-1-(((6-Amino-2-methylpyridin-3-yl)methyl)amino)-1-oxopropan-2-yl)-4-((5-chlorothiophen-3-yl)methyl)pyrrolidine-2-carboxamide Dihydrochloride] | < 0.5 | **** (≥100-fold) | < 0.5 | 0.5 to 2.5 | – | – | –
6 | C[C@H](NC(=O)[C@H]1C[C@H](Cc2ccccc2-c2ccccc2)CN1)C(=O)NCc1cnc2[nH]cc(Cl)c2c1 [compound 1393, (2R,4S)-4-([1,1′-Biphenyl]-2-ylmethyl)-N-((S)-1-(((3-chloro-1H-pyrrolo[2,3-b]pyridin-5-yl)methyl)amino)-1-oxopropan-2-yl)pyrrolidine-2-carboxamide Di-trifluoroacetate salt] | < 0.5 | * (≥1.0 to <5.0-fold) | < 0.5 | – | < 0.5 | – | –
7 | C[C@H](NC(=O)[C@H]1C[C@H](Cc2ccccc2-c2ccc(Cl)s2)CN1)C(=O)NCc1cc(Cl)ccc1-n1cnnn1 [compound 1409, (2R,4S)—N—((S)-1-((5-Chloro-2-(1H-tetrazol-1-yl)benzyl)amino)-1-oxopropan-2-yl)-4-(2-(5-chlorothiophen-2-yl)benzyl)pyrrolidine-2-carboxamide Trifluoroacetate] | < 0.5 | * (≥1.0 to <5.0-fold) | 2.5 to 10 | – | < 0.5 | – | –
8 | C[C@H](NC(=O)[C@H]1C[C@H](Cc2ccccc2)CN1)C(=O)NCc1ccc(C(=N)N)cc1 [compound 1306, (2R,4S)-4-Benzyl-N-((S)-1-((4-carbamimidoylbenzyl)amino)-1-oxopropan-2-yl)pyrrolidine-2-carboxamide Dihydrochloride] | < 0.5 | * (≥1.0 to <5.0-fold) | < 0.5 | – | < 0.5 | – | –
9 | C[C@H](NC(=O)[C@H]1C[C@H](c2ccccc2)CN1)C(=O)NCc1cnc2[nH]nc(Cl)c2c1 [compound 1384, (2R,4R)—N—((S)-1-(((3-Chloro-1H-pyrazolo[3,4-b]pyridin-5-yl)methyl)amino)-1-oxopropan-2-yl)-4-phenylpyrrolidine-2-carboxamide Dihydrochloride] | – | * (≥1.0 to <5.0-fold) | > 25 | – | > 25 | 10 to 25 | –
10 | COc1cc2ccccc2cc1C[C@@H]1CN[C@@H](C(=O)N[C@@H](C)C(=O)NCc2ccc(N)nc2C)C1 [compound 1478, (2R,4S)—N—((S)-1-(((6-Amino-2-methylpyridin-3-yl)methyl)amino)-1-oxopropan-2-yl)-4-((3-methoxynaphthalen-2-yl)methyl)pyrrolidine-2-carboxamide Dihydrochloride] | < 0.5 | **** (≥100-fold) | < 0.5 | 10 to 25 | – | – | –
11 | CC[C@H]1N[C@@H](C(=O)N[C@@H](C)C(=O)NCc2ccc(N)nc2C)C[C@@H]1Cc1ccccc1 [compound 1413, (2R,4S,5R)—N—((S)-1-(((6-Amino-2-methylpyridin-3-yl)methyl)amino)-1-oxopropan-2-yl)-4-benzyl-5-ethylpyrrolidine-2-carboxamide Di-trifluoroacetate salt] | – | *** (≥25 to <100-fold) | 2.5 to 10 | – | > 25 | 0.5 to 2.5 | –
12 | C[C@H](NC(=O)[C@H]1C[C@H](c2ccccc2)CN1)C(=O)NCc1cc(Cl)c2[nH]cnc2c1 [compound 1417, (2R,4R)—N—((S)-1-(((7-Chloro-1H-benzo[d]imidazol-5-yl)methyl)amino)-1-oxopropan-2-yl)-4-phenylpyrrolidine-2-carboxamide Trifluoroacetate salt] | – | – | 2.5 to 10 | – | > 25 | 0.5 to 2.5 | –
13 | N=C(N)NCCCCNC(=O)[C@@H]1CCN1C(=O)[C@H](N)C1CCCCC1 [compound 1006, (S)-1-((R)-2-Amino-2-cyclohexylacetyl)-N-(4-guanidinobutyl)azetidine-2-carboxamide Dihydrochloride] (H-[dChg]-[Aze]-Agmatine) | < 0.5 | – | < 0.5 | – | < 0.5 | – | −− (less than 1.0-fold)
14 | C[C@H](NC(=O)[C@H]1C[C@H](Cc2ccc(F)c(Cl)c2)CN1)C(=O)NCc1cnc2c(c1)c(Cl)cn2C [compound 1474, (2R,4S)—N—((S)-1-(((3-Chloro-1-methyl-1H-pyrrolo[2,3-b]pyridin-5-yl)methyl)amino)-1-oxopropan-2-yl)-4-(3-chloro-4-fluorobenzyl)pyrrolidine-2-carboxamide Trifluoroacetate salt] | < 0.5 | **** (≥100-fold) | < 0.5 | – | > 25 | – | –
15 | CC[C@H](NC(=O)[C@H]1C[C@H](c2ccccc2)CN1)C(=O)NCc1ccc(C(=N)N)cc1 [compound 1290, (2R,4R)—N—((S)-1-((4-carbamimidoylbenzyl)amino)-1-oxobutan-2-yl)-4-phenylpyrrolidine-2-carboxamide] | < 0.5 | ** (≥5.0 to <25-fold) | < 0.5 | 0.5 to 2.5 | – | – | –
16 | C[C@H](NC(=O)[C@H]1C[C@H](c2ccccc2)CN1)C(=O)NCc1cc2c(Br)cncc2[nH]1 [compound 1493, (2R,4R)—N—((S)-1-(((4-Bromo-1H-pyrrolo[2,3-c]pyridin-2-yl)methyl)amino)-1-oxopropan-2-yl)-4-phenylpyrrolidine-2-carboxamide Di-trifluoroacetate salt] | – | * (≥1.0 to <5.0-fold) | > 25 | 10 to 25 | – | 10 to 25 | –
17 | N=C(N)c1ccc(CNC(=O)[C@H](Cc2cnc[nH]2)NC(=O)[C@H](N)CCc2ccccc2)cc1 [compound 1332, (R)-2-Amino-N—((S)-1-((4-carbamimidoylbenzyl)amino)-3-(1H-imidazol-5-yl)-1-oxopropan-2-yl)-4-phenylbutanamide Di-trifluoroacetate] | – | – | 2.5 to 10 | – | > 25 | 10 to 25 | –
18 | Cc1nc(N)ccc1CNC(=O)[C@H](C)NC(=O)[C@H]1C[C@@H](C(C)c2ccccc2)CN1 (mixture of isomers) [compound 1344, (2R,4S)—N—((S)-1-(((6-Amino-2-methylpyridin-3-yl)methyl)amino)-1-oxopropan-2-yl)-4-((±)-1-phenylethyl)pyrrolidine-2-carboxamide Dihydrochloride] | < 0.5 | **** (≥100-fold) | < 0.5 | – | 2.5 to 10 | – | –
19 | CC(=O)Nc1ccc(Cl)cc1CNC(=O)[C@H](C)NC(=O)[C@H]1C[C@H](c2ccccc2)CN1 [compound 1269, (2R,4R)—N—((S)-1-((2-Acetamido-5-chlorobenzyl)amino)-1-oxopropan-2-yl)-4-phenylpyrrolidine-2-carboxamide] | – | ** (≥5.0 to <25-fold) | 10 to 25 | – | > 25 | 0.5 to 2.5 | –
20 | Cc1nc(N)ccc1CNC(=O)[C@H](C)N(C)C(=O)[C@H]1C[C@H](Cc2ccc(Br)cc2)CN1 [compound 1497, (2R,4S)—N—((S)-1-(((6-Amino-2-methylpyridin-3-yl)methyl)amino)-1-oxopropan-2-yl)-4-(4-bromobenzyl)-N-methylpyrrolidine-2-carboxamide Di-trifluoroacetate salt] | < 0.5 | ** (≥5.0 to <25-fold) | 2.5 to 10 | 2.5 to 10 | – | – | –
21 | Cc1cc(Cl)cc(CNC(=O)[C@H](C)NC(=O)[C@H]2C[C@H](c3ccccc3)CN2)c1O [compound 1298, (2R,4R)—N—((S)-1-((5-chloro-2-hydroxy-3-methylbenzyl)amino)-1-oxopropan-2-yl)-4-phenylpyrrolidine-2-carboxamide Hydrochloride] | < 0.5 | – | 2.5 to 10 | – | > 25 | – | –
22 | Cc1nc(N)ccc1CNC(=O)[C@H](C)NC(=O)[C@H]1C[C@H](Cc2ccccc2-c2ccc(Cl)s2)CN1 [compound 1410, (2R,4S)—N—((S)-1-(((6-Amino-2-methylpyridin-3-yl)methyl)amino)-1-oxopropan-2-yl)-4-(2-(5-chlorothiophen-2-yl)benzyl)pyrrolidine-2-carboxamide Trifluoroacetate] | < 0.5 | *** (≥25 to <100-fold) | 0.5 to 2.5 | 0.5 to 2.5 | – | – | –
